Target: human V2 vasopressin receptor subtype (Homo sapiens, UniProt P30518)
Assay: Vasopressin binding in CHO cell membranes expressing human vasopressin V2 subtype receptors
Conditions: [3H]arginine vasopressin; for inhibition at 0.1 µM / V2 % inhibition at 100 nM: 100 nM; for IC50: value in parentheses
Text: Vasopressin Binding in Chinese Hamster Ovary Cell Membranes Expressing Human Vasopressin V2 Subtype Receptors
Chinese Hamster Ovary (CHO) cells stably transfected with the human V2 subtype receptors were obtained from M. Thibonnier, Case Western Reserve University School of Medicine, Cleveland, Ohio.
A. Passaging and Amplification of Cells:
CHO cells transfected with the human vasopressin V2 subtype receptors obtained from M. Thibonnier (pZeoSV vector) are allowed to grow to confluency (approx. >90%) in T-150 flasks under sterile conditions, in a cell culture medium of F-12 Nutrient Mixture (HAM) with L-glutamine (Gibco Cat. # 11765-054) containing 15 mM HEPES (Gibco Cat. # 15630-080), 1% antibiotic/antimycotic (add 5 mL 100×, Gibco Cat. # 15240-062 per 500 mL F-12), 250 μg/mL Zeocin (add 1.25 mL of 100 mg/mL Invitrogen R-250-01 per 500 mL F-12) and 10% Fetal Bovine Serum (Qualified, heat inactivated, Gibco Cat. # 16140-063). The medium is removed by aspiration and the cells washed with 10 mL of Hank's Balanced Salt solution (Gibco Cat. # 14175-095). The salt solution is removed by aspiration and the cells trypsinized with 5 mL of trypsin-EDTA (0.05% trypsin, 0.53 mM EDTA-4Na, Gibco Cat. # 25300-070) for 1 min. The trypsin is removed by aspiration and the cells dislodged by tapping. Cell Culture medium (e.g. 30 mL for 1:30 split) is immediately added and mixed well to inactivate trypsin. 1 mL of detached cells is added to new culture flasks containing fresh Cell Culture medium (e.g. into 25 mL per T-150 flask), and mixed gently. The cells are incubated at 37° C. in 5% CO2. The medium is changed at 3 to 4 day interval (or as appropriate). The cells grow to confluency (approx. >75%–95%) within 7–8 days. All steps are done under sterile conditions. B. Membrane Preparation: The cells are washed twice gently with Hank's Balanced Salt solution (e.g. use 10 mL per T-150 flask). The excess solution is removed and the cells bathed for 15–30 min. in an enzyme-free Cell Dissociation Buffer (e.g. use 8 mL Hank's Based, Gibco Cat. # 13150-016 per T-150 flask) until cells are loosened. The contents are transferred to centrifuge tubes (50 mL) kept in an ice bath. All subsequent steps are done at 4° C. The tubes are centrifuged at 300× g for 15 min (1380 rpm on SORVAL, Model RT6000D, using the rotor for 50 mL tubes). The supernatant is discarded and the cells suspended in homogeneizing buffer(10 mM Tris-HCl containing 0.25 M sucrose and 1 mM EDTA, pH 7.4) ensuring that the volume of the buffer is about ten times the volume of the cell pellet. The cells are pooled into a centrifuge tube (50 mL) and homogenized with a Polytron at setting 6 for 10 sec. The homogenate is transferred into a Potter-Elvjehm homogeneizer and homogenized with 3 strokes. The homogenate is centrifuged at 1500×g for 60 min at 4° C. (3100 rpm using SORVAL, model RT6000D, using the rotor for 50 mL tubes). The pellet is discarded. The supernatant is centrifuged at 100,000×g for 60 min. at 4° C. (Beckman L8-80M ultracentrifuge; spin at 37,500 rpm with rotor type 70 Ti for 50 mL tubes; 38,000 rpm with type 80Ti for 15 mL tubes; or 35,800 rpm with rotor type 45Ti). The supernantant is discarded and the pellet suspended in 3 to 4 mL of Tris buffer (50 mM TRIS-HCl, pH 7.4). The protein content is estimated by the Bradford or Lowry method. The volume of the membrane suspension is adjusted with the membrane buffer (50 mM Tris-HCl containing 0.1% BSA and 0.1 mM PMSF) to give 3.0 mg/mL (or as appropriate) of protein. The membranes are aliquoted and stored at −70° C. C. Radioligand Binding Assay: In wells of a 96-well format microtiter plate, is added 90, 110 or 130 μL (to make up a final volume of 200 μL) of assay buffer containing 50 mM of Tris-HCl (pH 7.4), […], 1 mg % aprotinin, 1 mg % leupeptin, 2 mg % 1,10-phenanthroline, 10 mg % trypsin inhibitor, and 0.1 mM PMSF. The inhibitors are added on the day of the experiment. […]

human V2 vasopressin receptor subtype, sequence (P30518 whole entry): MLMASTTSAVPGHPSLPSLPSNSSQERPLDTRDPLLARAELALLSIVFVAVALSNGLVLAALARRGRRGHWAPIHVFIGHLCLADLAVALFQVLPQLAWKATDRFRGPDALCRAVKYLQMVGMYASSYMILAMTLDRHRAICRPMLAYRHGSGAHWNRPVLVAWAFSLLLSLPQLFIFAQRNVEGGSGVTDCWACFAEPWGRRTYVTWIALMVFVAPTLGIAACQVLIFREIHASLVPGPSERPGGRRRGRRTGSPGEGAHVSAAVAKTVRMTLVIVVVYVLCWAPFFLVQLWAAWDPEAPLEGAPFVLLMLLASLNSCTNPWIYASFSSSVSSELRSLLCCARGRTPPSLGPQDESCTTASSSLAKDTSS

Row | Compound | inhibition at 0.1 µM | IC50 | also measured
1 | O=C(NCCN1CCCCC1)c1ccc2n1Cc1ccccc1N(C(=O)c1ccc(C3CCCCC3)cc1)C2 [Example 37, 10-(4-Cyclohexyl-benzoyl)-N-[2-(1-piperidinyl)ethyl]-10,11-dihydro-5H-pyrrolo[2,1-c][1,4]benzodiazepine-3-carboxamide] | 8% | – | –
2 | O=C(c1ccc2n1Cc1ccccc1N(C(=O)c1ccc(C3CCCCC3)cc1)C2)N1CCN(c2ncccn2)CC1 [Example 23] | – | > 1000 nM | –
3 | O=C(c1ccc2n1Cc1ccccc1N(C(=O)c1ccc(C3CCCCC3)cc1)C2)N1CCN(c2ccncc2)CC1 [Example 54, [10-(4-Cyclohexyl-benzoyl)-10,11-dihydro-5H-pyrrolo[2,1-c][1,4]benzpdiazepin-3-yl][4-(4-pyridinyl)-1-piperazinyl]-methanone] | – | – | V2 % inhibition at 100 nM: 6%
4 | Cc1ccccc1N1CCN(C(=O)c2ccc3n2Cc2ccccc2N(C(=O)c2ccc(C4CCCCC4)cc2)C3)CC1 [Example 27, [10-(4-Cyclohexyl-benzoyl)-10,11-dihydro-5H-pyrrolo[2,1-c][1,4]benzodiazepin-3-yl][4-(2-methylphenyl)-1-piperazinyl]-methanone] | 9% | – | –
5 | C=CCN1CCN(C(=O)c2ccc3n2Cc2ccccc2N(C(=O)c2ccc(C4CCCCC4)cc2)C3)CC1 [Example 43, (4-Allyl-1-piperazinyl)[10-(4-cyclohexyl-benzoyl)-10,11-dihydro-5H-pyrrolo[2,1-c][1,4]benzodiazepin-3-yl]methanone] | 8% | – | –
6 | O=C(NCc1ccncc1)c1ccc2n1Cc1ccccc1N(C(=O)c1ccc(C3CCCCC3)cc1)C2 [Example 53, 10-(4-Cyclohexyl-benzoyl)-N-(4-pyridinylmethyl)-10,11-dihydro-5H-pyrrolo[2,1-c][1,4]benzodiazepine-3-carboxamide] | 2% | – | –
7 | CN(CCc1ccccn1)C(=O)c1ccc2n1Cc1ccccc1N(C(=O)c1ccc(C3CCCCC3)cc1)C2 [Example 52, 10-(4-Cyclohexyl-benzoyl)-N-methyl-N-[2-(2-pyridinyl)-ethyl]-10,11-dihydro-5H-pyrrolo[2,1-c][1,4]benzodiazepine-3-carboxamide] | 8% | – | –
8 | O=C(c1ccc(C2CCCCC2)cc1)N1Cc2ccc(C(=O)N3CCC[C@H]3CN3CCCC3)n2Cc2ccccc21 [Example 46, [10-(4-Cyclohexyl-benzoyl)-10,11-dihydro-5H-pyrrolo[2,1-c][1.4]benzodiazepin-3-yl][(2S)-2-(1-pyrrolidinylmethyl)pyrrolidinyl]methanone] | – | – | V2 % inhibition at 100 nM: 14%
9 | O=C(c1ccc2n1Cc1ccccc1N(C(=O)c1ccc(C3CCCCC3)cc1)C2)N1CCC(N2CCCCC2)CC1 [Example 26, [1,4′]Bipiperidinyl-1′-yl-[10-(4-cyclohexyl-benzoyl)-10,11-dihydro-5H-pyrrolo[2,1-c][1,4]benzodiazepin-3-yl]-methanone] | – | > 1000 nM | –
10 | CN1CCN(C(=O)C(=O)c2ccc3n2Cc2ccccc2N(C(=O)c2ccc(C4CCCCC4)cc2)C3)CC1 [Example 32, 1-[10-(4-Cyclohexyl-benzoyl)-10,11-dihydro-5H-pyrrolo[2,1-c][1,4]benzodiazepin-3-yl]-2-(4-methyl-1-piperazin-1-yl)-1,2-ethane-1,2-dione] | – | – | V2 % inhibition at 100 nM: 6%
11 | Cc1ccccc1C(=O)NNC(=O)c1ccc2n1Cc1ccccc1N(C(=O)c1ccc(C3CCCCC3)cc1)C2 [Example 12, 10-(4-Cyclohexyl-benzoyl)-N′-(2-methylbenzoyl)-10,11-dihydro-5H-pyrrolo[2,1-c][1,4]benzodiazepine-3-carbonyl-hydrazide] | – | – | V2 % inhibition at 100 nM: 7%
12 | CN1CCC(N(C)C(=O)c2ccc3n2Cc2ccccc2N(C(=O)c2ccc(C4CCCCC4)cc2)C3)CC1 [Example 39, 10-(4-Cyclohexyl-benzoyl)-N-methyl-N-(1-methyl-4-piperidinyl)-10,11-dihydro-5H-pyrrolo[2,1-c][1,4]benzodiazepine-3-carboxamide] | 13% | – | –
13 | CN1CCCC1CCNC(=O)c1ccc2n1Cc1ccccc1N(C(=O)c1ccc(C3CCCCC3)cc1)C2 (centres unmarked) [Example 38, 10-(4-Cyclohexyl-benzoyl)-N-[2-(1-methyl-2-pyrrolidinyl)ethyl]-10,11-dihydro-5H-pyrrolo[2,1-c][1,4]benzodiazepine-3-carboxamide] | 1% | – | –

More lines, main results first:

Row | inhibition at 0.1 µM | IC50 | Compound | also measured
14 | – | 1160 nM | CN(C)C=NNC(=O)c1ccc2n1Cc1ccccc1N(C(=O)c1ccc(C3CCCCC3)cc1)C2 [Example 10, N′-{[10-(4-Cyclohexyl-benzoyl)-10,11-dihydro-5H-pyrrolo[2,1-c][1.4]benzodiazepin-3-yl]carbonyl}-N,N-dimethylhydrazonoformamide] | –
15 | 11% | – | CN(C)/C=C/C(=O)c1ccc2n1Cc1ccccc1N(C(=O)c1ccc(C3CCCCC3)cc1)C2 [Example 20, (E)-1-[10-(4-Cyclohexyl-benzoyl)-10,11-dihydro-5H-pyrrolo[2,1-c][1,4]benzodiazepin-3-yl]-3-(dimethylamino)-2-propen-1-one] | –
16 | – | > 1000 nM | CC(=O)NNC(=O)c1ccc2n1Cc1ccccc1N(C(=O)c1ccc(C3CCCCC3)cc1)C2 [Example 11, N′-Acetyl-10-(4-cyclohexyl-benzoyl)-10,11-dihydro-5H-pyrrolo[2,1-c][1,4]benzodiazepine-3-carbonyl-hydrazide] | –
17 | – | 477 nM | CN(C)/C=N/C(=O)c1ccc2n1Cc1ccccc1N(C(=O)c1ccc(C3CCCCC3)cc1)C2 [Example 17] | –
18 | 16% | – | CN(C)CCCN(C)C(=O)c1ccc2n1Cc1ccccc1N(C(=O)c1ccc(C3CCCCC3)cc1)C2 [Example 35, 10-(4-Cyclohexyl-benzoyl)-N-[3-(dimethylamino)propyl]N-methyl-10,11-dihydro-5H-pyrrolo[2,1-c][1,4]benzodiazepine-3-carboxamide] | –
19 | – | > 1000 nM | CN(C)NC(=O)c1ccc2n1Cc1ccccc1N(C(=O)c1ccc(C3CCCCC3)cc1)C2 [Example 19, 10-(4-Cyclohexyl-benzoyl)-N′-N′-dimethyl-10,11-dihydro-5H-pyrrolo[2,1-c][1,4]benzodiazepine-3-carbohydrazide] | –
20 | – | > 1000 nM | CC(=NNC(=O)c1ccc2n1Cc1ccccc1N(C(=O)c1ccc(C3CCCCC3)cc1)C2)N(C)C [Example 9, N′-{[10-(4-Cyclohexyl-benzoyl)-10,11-dihydro-5H-pyrrolo[2,1-c][1,4]benzodiazepin-3-yl]carbonyl}-N,N-dimethylethanehydrazonamide] | –

Reference: patent US7202239B2, “Cyclohexylphenyl carboxamides tocolytic oxytocin receptor antagonists” (Wyeth, priority 2001, dated 2007)
